Measurements as given in patent publication US5244897A, “Glycyl-p-amino-pyridine for the treatment of senile dementia states” (priority 1989, dated 1993).

Assays:
[1] = acute convulsant activity after oral administration (Litchfield and Wilcoxon); type: in vivo; conditions: Swiss male mice; for TD50: mouse, in vivo, read-out: CD50 (Convulsant Doses 50)
[2] = acute toxicity after oral administration (Litchfield and Wilcoxon); type: in vivo; conditions: Swiss mice; for LD50: mouse, in vivo
[3] = tested on: electroconvulsive shock (ECS) induced amnesia; assay: electroconvulsive shock (ECS) induced amnesia (passive avoidance); type: in vivo, male mice; conditions: n=20; for minimal effective dose: Mus musculus, ip, read-out: Active dose (significantly prolonged the latency)
Procedure: Male mice (body weight 23-26 grams) were used.
Test apparatus and passive avoidance training (acquisition trial) were as described in the previous section.
Immediately after acquisition trial, amnesia was induced by electroconsulsive shock (ECS).
Test compounds were administered intraperitoneally soon afterwards the exposure to ECS.
The test trial was performed 24 h after the acquisition trial: the animals were put in the illuminated compartment an the latency time to enter the unlighted compartment was recorded
(§1) Anti-amnesic activity was calculated according to the following formula.
(§2) % of control = (the mean latency time of test compound treated mice/the
(§3) mean latency time of vehicle treated mice) × 100.

[4] = tested on: acetylcholine release from the rat's cerebral cortex; assay: acetylcholine release in vivo, acute treatment; conditions: 5.6 mg/kg i.p., anesthetized rats, n=5
Procedure: Effect on acetylcholine release from the rat's cerebral cortex "in vivo"
In this study the Acetylcholine release from the cerebral cortex was investigated in anesthetized rats (n=5) at different times before and after i.p. administration of MR-3066 at a dose of 5.6 mg/kg.

[5] = mean blood pressure (reported with the transcallosal evoked potential study); type: in vivo, rats; conditions: for mean blood pressure: MR-3066 2 mg/kg i.v., physostigmine 0.1 mg/kg i.v.
Procedure: (§4) Electric stimulus was given to the callosum of urethane anesthetized rats, and transcallosal evoked potential from the opposite side cerebral cortex was measured.
(§5) The effects of the compounds on the transcallosal evoked potential were studied in rats.

[6] = tested on: retention of passive avoidance response; assay: learning behavior in normal mice (passive avoidance response); type: in vivo, male mice; conditions: n=20
Procedure: Male mice (body weight ca 20 grams) were used. The test apparatus was a box with a dark compartment and an illuminated one.
The animal was placed in the illuminated compartment, foot-shock was given immediately after the mouse moved in the dark compartement (acquisition trial).
MR-3066 was intraperitoneally administered immediately after the acquisition trial.
The test trial was carried out 24 h following the acquisition trial and the latency time to enter the dark compartment was recorded.
Anti-amnesic activity was calculated according to the following formula:
of control = (the mean latency time of test compound treated mice/the mea
latency time of vehicle treated mice) 100.

[7] = toxicity after repeated oral administration, 30 days, preliminary study; type: in vivo, male and female Sprague Dawley rat; conditions: 6 mg/kg oral, 30 consecutive days, rat
Procedure: The toxicity of MR-3066 after repeated administration was evaluated in male and female Sprague Dawley rat after oral administration of the drug (6 mg/kg) for 30 consecutive days.

[8] = properties stated in the general summary; type: in vivo; conditions: general statement
[9] = tested on: scopolamine-induced amnesia; assay: scopolamine-induced amnesia (passive avoidance); type: in vivo, mice; conditions: for minimal effective dose: Mus musculus, ip, read-out: Active dose (significantly prolonged the latency)
Procedure: Test apparatus, mice and passive avoidance training (acquisition trial) were as described in the previous sections (4.2-4.3). The compounds were intraperitoneally administered 30 min. before the acquisition trial.
Amnesia was induced by scolopolamine (1 mg/kg s.c.) given 20 min. prior to the acquisition trial; the test trial was performed after 24 hours.
The animals were put in the illuminated compartment and latency time to enter the dark compartment was recorded.
as §1, §2, §3

[10] = tested on: transcallosal evoked potential from the opposite side cerebral cortex; assay: transcallosal evoked potential; type: in vivo, urethane anesthetized rats; conditions: 0.1 mg/kg i.v., rats
Procedure: as §4, §5

[11] = tested on: spontaneous EEG (motor cortex, hippocampus, nucleus amygdalae); assay: spontaneous EEG; type: in vivo; conditions: 0.1 mg/kg i.v., rabbits
From the text: Electrodes were chronically implanted in the motor cortex, the hippocampus and the nucleus amygdalae of rabbits (n=4).
The effects of compounds on spontaneous EEG were studied in the animals.

[12] = ECS amnesia, 1 mg/kg i.p., MR-3066 ** P < 0.01 vs control
[13] = ECS amnesia, 2,5 mg/kg i.p., MR-3066 * P < 0.05, THA ** P < 0.01 vs control

## Nc1ccncc1 [4-aminopyridine, reference compound]
[1]
  TD50: 5 mg/kg
[2]
  LD50: 12 mg/kg

## NCC(=O)Nc1ccncc1 [MR-3066, glycyl-p-amino-pyridine monoacetate]
[3]; ECS amnesia, 0,1 mg/kg i.p.
  Anti-amnesic activity (% of control): 148,2 % of control
[3]; ECS amnesia, 0,5 mg/kg i.p.
  Anti-amnesic activity (% of control): 121,6 % of control
[3]; ECS amnesia, 0,25 mg/kg i.p.
  Anti-amnesic activity (% of control): 147,8 % of control
[3]; [12]
  Anti-amnesic activity (% of control): 189,6 % of control
[3]; ECS amnesia, 5 mg/kg i.p.
  Anti-amnesic activity (% of control): 148 % of control
[3]; [13]
  Anti-amnesic activity (% of control): 165,5 % of control
[4]
  time of peak of Ach release: 45 '
[5]
  mean blood pressure: raised the mean blood pressure
[6]; 1 mg/kg i.p.
  Mean latency (% of control): 120.5 % of control
[6]; 2.5 mg/kg i.p.
  Mean latency (% of control): 118.8 % of control
[6]; 5 mg/kg i.p., ** P < 0.01 vs control
  Mean latency (% of control): 136.1 % of control
[6]; Mus musculus, ip, passive avoidance, normal mice, read-out: Active dose (significantly prolonged the latency)
  minimal effective dose: 5 mg/kg
[7]
  toxic phenomena after repeated administration: no toxic phenomenon except for a slight decrease in body weight, increase in the female accompanied by a reduction in food consumption
[1]
  convulsant activity versus 4-aminopyridine: less convulsant than 4-aminopyridine
  TD50: 19 mg/kg
[8]
  Parkinson-like effect: without nevertheless showing Parkinson-like effect
[9]; scopolamine amnesia
  minimal effective dose: 1 mg/kg
[9]; scopolamine amnesia, 0,5 mg/kg i.p.
  Anti-amnesic activity (% of control): 157,6 % of control
[9]; scopolamine amnesia, 1 mg/kg i.p., ** P < 0.01 vs controls
  Anti-amnesic activity (% of control): 188,1 % of control
[9]; scopolamine amnesia, 5 mg/kg i.p.
  Anti-amnesic activity (% of control): 159,5 % of control
[9]; scopolamine amnesia, 2,5 mg/kg i.p.
  Anti-amnesic activity (% of control): 145,2 % of control
[2]
  acute toxicity versus 4-aminopyridine: toxicity lower than 4-aminopiridine
  LD50: 29 mg/kg

## CNC(=O)Oc1ccc2c(c1)[C@]1(C)CCN(C)[C@@H]1N2C [Physostigmine]
[3]; ECS amnesia, 0,05 mg/kg i.p., * P < 0.05
  Anti-amnesic activity (% of control): 165,6 % of control
[3]; ECS amnesia, 0,025 mg/kg i.p., * P < 0.05
  Anti-amnesic activity (% of control): 172,9 % of control
[3]; ECS amnesia, physostigmine 0,1 mg/kg i.p.
  Anti-amnesic activity (% of control): 148 % of control
[3]; ECS amnesia
  minimal effective dose: 0.025 to 0.05 mg/kg
[10]
  amplitude of negative wave of transcallosal evoked potential: increased the amplitude of negative wave
[5]
  mean blood pressure: raised the mean blood pressure
[5]; physostigmine 0.1 mg/kg i.v. vs MR-3066 2 mg/kg i.v.
  mean blood pressure effect versus MR-3066: much more marked than MR-3066
[11]
  onset of the EEG effects: immediately after the administration
[9]; scopolamine amnesia
  minimal effective dose: 0.1 mg/kg
  Active dose (significantly prolonged the latency): 0,1 mg/kg i.p.
[9]; scopolamine amnesia, 0,1 mg/kg i.p., * P < 0.05
  Anti-amnesic activity (% of control): 155,5 % of control
[9]; scopolamine amnesia, 0,05 mg/kg i.p.
  Anti-amnesic activity (% of control): 134,5 % of control
[9]; scopolamine amnesia, 0,025 mg/kg i.p.
  Anti-amnesic activity (% of control): 119,5 % of control

## Nc1c2c(nc3ccccc13)CCCC2 [THA]
[3]; ECS amnesia, 0,5 mg/kg i.p.
  Anti-amnesic activity (% of control): 72,2 % of control
[3]; [12]
  Anti-amnesic activity (% of control): 114,4 % of control
[3]; [13]
  Anti-amnesic activity (% of control): 184,5 % of control
[3]; ECS amnesia
  Active dose (significantly prolonged the latency): 2.5 mg/kg i.p.
  minimal effective dose: 2.5 mg/kg
